From ChEMBL document CHEMBL4118082 (Eur J Med Chem, 2017) come the findings set out here.

As usually defined, the CC50 is the concentration at which the toxic effect on the cells reaches its halfway point. In general, MIC90 refers to the lowest concentration that inhibits either 90% of growth or 90% of the strains tested, depending on the study.

SMILES strings stand for the structures. Values after ≈ are worked out from the molar mass of the structure shown.

Series [1] in a line: Cytotoxicity against human MRC5 cells assessed as reduction in cell viability after 24 hrs by neutral red uptake assay. The series is classed as cell-based.
Series [2] relates to Mycolicibacterium smegmatis. Description: Antimycobacterial activity against Mycobacterium smegmatis MC2 155 harboring pSMT1 carrying luxAB gene after 6 days by luminescence based serial dilution method. The note with it: str. MC2 155, 144 h. Type of series: functional.
Series [3] deals with Mycobacterium avium. Description: Antimycobacterial activity against Mycobacterium avium ssp. avium ATCC 15769 harboring pSMT1 carrying luxAB gene after 6 days by luminescence based serial dilution method. Type of series: functional, Mycobacterium avium subsp. avium. Conditions: ATCC 15769, 144 h.
The subject of series [4] is Mycobacterium avium. Put plainly: Antimycobacterial activity against Mycobacterium avium ssp. paratuberculosis ATCC 19698 harboring pSMT1 carrying luxAB gene after 6 days by luminescence based serial dilution method. The series is classed as functional, Mycobacterium avium subsp. paratuberculosis. The note with it: ATCC 19698, 144 h.

With `O=c1c(-c2ccccc2)c(O)c2ccccc2n1-c1ccccc1`, in series [1], the CC50 at 24 h is more than 128 µM. The MIC90 in series [2] came out at 10.3 µM (≈ 3.23 µg/mL); with Mycobacterium avium [3] it was 35.4 µM (≈ 11.1 µg/mL); in the series with Mycobacterium avium [4], 23.8 µM (≈ 7.46 µg/mL).

Turning to `COc1cccc2c(O)c(-c3ccccc3)c(O)nc12`, the 50% cytotoxic concentration (CC50) at 24 h in series [1] was determined as 104 µM. The MIC90 in series [2] is 15.1 µM (≈ 4.04 µg/mL); in the series on Mycobacterium avium [3] it was 13 µM (≈ 3.47 µg/mL); against Mycobacterium avium [4] it was 18 µM (≈ 4.81 µg/mL).

`Oc1nc2ccccc2c(O)c1-c1ccccc1`: the 50% cytotoxic concentration (CC50) at 24 h in series [1] was 96.5 µM. The MIC90 in series [2] turned out to be 23.5 µM (≈ 5.58 µg/mL); against Mycobacterium avium [3], 19.8 µM (≈ 4.7 µg/mL); in the series on Mycobacterium avium [4] it was 21.2 µM (≈ 5.03 µg/mL).

Take `CC(=O)Oc1c(-c2ccccc2)c(=O)[nH]c2ccc(F)cc12`: in series [1], the CC50 at 24 h came to 88.4 µM. The MIC90 in series [2] turned out to be 9.5 µM (≈ 2.82 µg/mL); in the series with Mycobacterium avium [3], 8.9 µM (≈ 2.65 µg/mL); in the series with Mycobacterium avium [4], 7.5 µM (≈ 2.23 µg/mL).

For `Cc1cc2[nH]c(=O)c(-c3ccccc3)c(O)c2cc1C`, in series [1], the half-maximal cytotoxic concentration (CC50) at 24 h is 61.8 µM. The MIC90 was 17.3 µM (≈ 4.59 µg/mL) in series [2], 15.7 µM (≈ 4.17 µg/mL) in the series on Mycobacterium avium [3] and 20.3 µM (≈ 5.39 µg/mL) in the series with Mycobacterium avium [4].

On to `O=c1[nH]c2c(O)cccc2c(O)c1-c1ccccc1`, for which the cytotoxic concentration (CC50) at 24 h in series [1] turned out to be 84.1 µM. In addition, the MIC90 turned out to be 20 µM (≈ 5.07 µg/mL) in series [2], 17 µM (≈ 4.31 µg/mL) in the series with Mycobacterium avium [3] and 13.7 µM (≈ 3.47 µg/mL) against Mycobacterium avium [4].

On to `O=c1[nH]c2ccc(F)cc2c(O)c1-c1ccccc1`, for which, in series [1], the CC50 at 24 h was determined as 67.4 µM. In addition, the results for the MIC90 (in series [2]; in the series on Mycobacterium avium [3]; in the series on Mycobacterium avium [4]) were 8.4 µM (≈ 2.14 µg/mL), 8.5 µM (≈ 2.17 µg/mL) and 11.5 µM (≈ 2.94 µg/mL), respectively.

On to `COc1ccc2[nH]c(=O)c(-c3ccccc3)c(O)c2c1`, for which the CC50 at 24 h in series [1] amounted to 75.4 µM. Moreover, the MIC90 in series [2] stood at 15.3 µM (≈ 4.09 µg/mL); against Mycobacterium avium [3], 17.5 µM (≈ 4.68 µg/mL); in the series on Mycobacterium avium [4], 18.6 µM (≈ 4.97 µg/mL).

On to `O=c1[nH]c2ccc(O)cc2c(O)c1-c1ccccc1`, for which the 50% cytotoxic concentration (CC50) at 24 h in series [1] was more than 128 µM. Further, the MIC90 in series [2] was 16.8 µM (≈ 4.25 µg/mL); against Mycobacterium avium [3], 15.6 µM (≈ 3.95 µg/mL); against Mycobacterium avium [4] it was 13.2 µM (≈ 3.34 µg/mL).

For the compound `Cc1ccc2[nH]c(=O)c(-c3ccccc3)c(O)c2c1`, in series [1], the cytotoxic concentration (CC50) at 24 h was more than 128 µM. In addition, the MIC90 amounted to 19.2 µM (≈ 4.82 µg/mL) in series [2], 12.6 µM (≈ 3.17 µg/mL) against Mycobacterium avium [3] and 13.2 µM (≈ 3.32 µg/mL) with Mycobacterium avium [4].

Take `Cc1c(O)c2ccccc2[nH]c1=O`: the CC50 at 24 h in series [1] amounted to 84.7 µM. For the same compound, the MIC90 in series [2] was found to be 23.2 µM (≈ 4.06 µg/mL); in the series with Mycobacterium avium [3], 18.4 µM (≈ 3.22 µg/mL); with Mycobacterium avium [4], 14.5 µM (≈ 2.54 µg/mL).

With `O=c1[nH]c2cc(O)ccc2c(O)c1-c1ccccc1`, the 50% cytotoxic concentration (CC50) at 24 h in series [1] is 92.1 µM. Further, the MIC90 in series [2] worked out at 18.5 µM (≈ 4.69 µg/mL); in the series with Mycobacterium avium [3] it was 16.3 µM (≈ 4.13 µg/mL); in the series with Mycobacterium avium [4], 15.7 µM (≈ 3.98 µg/mL).

As to `COc1ccc2c(O)c(-c3ccccc3)c(=O)[nH]c2c1`, the cytotoxic concentration (CC50) at 24 h in series [1] is 59 µM. Besides, the values for the MIC90 (in series [2]; in the series with Mycobacterium avium [3]; in the series with Mycobacterium avium [4]) were 19.5 µM (≈ 5.21 µg/mL), 13.8 µM (≈ 3.69 µg/mL) and 16.5 µM (≈ 4.41 µg/mL), respectively.

In the case of `NNC(=O)c1ccncc1` [ISONIAZID], the MIC90 (in series [2]; in the series with Mycobacterium avium [3]; in the series on Mycobacterium avium [4]) was less than 0.1 µM each time.
